The record followed here is patent US20230079819A1, “COMPOUNDS AND USES THEREOF” (Foghorn Therapeutics Inc., priority 2019, published 2023).

One assay deals with T1, BRG-1 (Homo sapiens, UniProt P51532).
T1 construct: made in house; host or cells: High Five insect cells
The assay can be described thus: ATPase catalytic activity of BRG-1, ADP-Glo in vitro biochemical assay. The following applies: ATPase catalytic activity, 30 nM BRG-1, 400 μM ATP, read-out: BRG1 IP50.

For a further assay, the target named is T2, BRM (Homo sapiens, UniProt P51531).
T2 construct: made in house; host or cells: High Five insect cells
The experiment in a line: ATPase catalytic activity of BRM, ADP-Glo in vitro biochemical assay. The following applies: ATPase catalytic activity, 30 nM BRM, 400 μM ATP, read-out: BRM IP50.

T2 sequence (P51531 whole entry): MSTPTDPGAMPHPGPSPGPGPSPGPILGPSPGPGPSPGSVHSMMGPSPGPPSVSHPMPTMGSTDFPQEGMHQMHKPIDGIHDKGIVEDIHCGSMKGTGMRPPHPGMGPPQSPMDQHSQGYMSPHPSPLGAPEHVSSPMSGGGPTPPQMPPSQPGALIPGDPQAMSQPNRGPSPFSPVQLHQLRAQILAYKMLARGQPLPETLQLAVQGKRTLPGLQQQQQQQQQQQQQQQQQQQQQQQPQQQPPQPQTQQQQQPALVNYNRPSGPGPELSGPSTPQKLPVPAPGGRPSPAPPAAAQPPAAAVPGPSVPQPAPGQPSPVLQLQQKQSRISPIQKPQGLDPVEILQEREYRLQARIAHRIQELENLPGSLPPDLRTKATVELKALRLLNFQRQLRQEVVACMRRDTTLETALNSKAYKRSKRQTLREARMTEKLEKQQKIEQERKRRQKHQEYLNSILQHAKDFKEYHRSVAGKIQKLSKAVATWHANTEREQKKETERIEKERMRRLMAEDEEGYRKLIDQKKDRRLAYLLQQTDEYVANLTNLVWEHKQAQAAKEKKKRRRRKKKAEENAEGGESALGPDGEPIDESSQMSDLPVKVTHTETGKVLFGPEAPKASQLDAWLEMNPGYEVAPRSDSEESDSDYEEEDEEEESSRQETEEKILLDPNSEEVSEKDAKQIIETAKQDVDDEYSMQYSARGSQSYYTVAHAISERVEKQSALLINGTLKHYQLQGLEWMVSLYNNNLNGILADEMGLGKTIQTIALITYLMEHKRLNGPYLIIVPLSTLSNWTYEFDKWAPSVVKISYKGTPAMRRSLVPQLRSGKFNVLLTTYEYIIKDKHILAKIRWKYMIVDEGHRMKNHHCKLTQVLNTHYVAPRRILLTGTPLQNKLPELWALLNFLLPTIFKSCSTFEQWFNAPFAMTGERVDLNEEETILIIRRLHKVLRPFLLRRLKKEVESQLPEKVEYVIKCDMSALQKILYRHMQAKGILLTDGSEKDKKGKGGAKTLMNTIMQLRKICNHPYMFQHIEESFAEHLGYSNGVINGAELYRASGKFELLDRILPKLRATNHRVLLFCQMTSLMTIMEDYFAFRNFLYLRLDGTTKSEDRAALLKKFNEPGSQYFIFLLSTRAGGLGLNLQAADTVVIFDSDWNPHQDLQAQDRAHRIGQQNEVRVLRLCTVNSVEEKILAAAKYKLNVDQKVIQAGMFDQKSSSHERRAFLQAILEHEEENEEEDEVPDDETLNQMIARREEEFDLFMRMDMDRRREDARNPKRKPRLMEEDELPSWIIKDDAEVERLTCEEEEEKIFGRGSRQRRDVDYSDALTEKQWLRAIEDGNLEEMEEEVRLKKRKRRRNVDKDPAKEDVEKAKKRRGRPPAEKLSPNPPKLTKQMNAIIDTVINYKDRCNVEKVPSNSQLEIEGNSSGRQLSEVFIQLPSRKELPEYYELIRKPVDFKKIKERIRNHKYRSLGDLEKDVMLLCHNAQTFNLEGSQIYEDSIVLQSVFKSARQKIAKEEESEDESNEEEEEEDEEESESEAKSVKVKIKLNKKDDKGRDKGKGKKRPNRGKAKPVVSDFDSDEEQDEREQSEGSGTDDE
T1 sequence (P51532 whole entry): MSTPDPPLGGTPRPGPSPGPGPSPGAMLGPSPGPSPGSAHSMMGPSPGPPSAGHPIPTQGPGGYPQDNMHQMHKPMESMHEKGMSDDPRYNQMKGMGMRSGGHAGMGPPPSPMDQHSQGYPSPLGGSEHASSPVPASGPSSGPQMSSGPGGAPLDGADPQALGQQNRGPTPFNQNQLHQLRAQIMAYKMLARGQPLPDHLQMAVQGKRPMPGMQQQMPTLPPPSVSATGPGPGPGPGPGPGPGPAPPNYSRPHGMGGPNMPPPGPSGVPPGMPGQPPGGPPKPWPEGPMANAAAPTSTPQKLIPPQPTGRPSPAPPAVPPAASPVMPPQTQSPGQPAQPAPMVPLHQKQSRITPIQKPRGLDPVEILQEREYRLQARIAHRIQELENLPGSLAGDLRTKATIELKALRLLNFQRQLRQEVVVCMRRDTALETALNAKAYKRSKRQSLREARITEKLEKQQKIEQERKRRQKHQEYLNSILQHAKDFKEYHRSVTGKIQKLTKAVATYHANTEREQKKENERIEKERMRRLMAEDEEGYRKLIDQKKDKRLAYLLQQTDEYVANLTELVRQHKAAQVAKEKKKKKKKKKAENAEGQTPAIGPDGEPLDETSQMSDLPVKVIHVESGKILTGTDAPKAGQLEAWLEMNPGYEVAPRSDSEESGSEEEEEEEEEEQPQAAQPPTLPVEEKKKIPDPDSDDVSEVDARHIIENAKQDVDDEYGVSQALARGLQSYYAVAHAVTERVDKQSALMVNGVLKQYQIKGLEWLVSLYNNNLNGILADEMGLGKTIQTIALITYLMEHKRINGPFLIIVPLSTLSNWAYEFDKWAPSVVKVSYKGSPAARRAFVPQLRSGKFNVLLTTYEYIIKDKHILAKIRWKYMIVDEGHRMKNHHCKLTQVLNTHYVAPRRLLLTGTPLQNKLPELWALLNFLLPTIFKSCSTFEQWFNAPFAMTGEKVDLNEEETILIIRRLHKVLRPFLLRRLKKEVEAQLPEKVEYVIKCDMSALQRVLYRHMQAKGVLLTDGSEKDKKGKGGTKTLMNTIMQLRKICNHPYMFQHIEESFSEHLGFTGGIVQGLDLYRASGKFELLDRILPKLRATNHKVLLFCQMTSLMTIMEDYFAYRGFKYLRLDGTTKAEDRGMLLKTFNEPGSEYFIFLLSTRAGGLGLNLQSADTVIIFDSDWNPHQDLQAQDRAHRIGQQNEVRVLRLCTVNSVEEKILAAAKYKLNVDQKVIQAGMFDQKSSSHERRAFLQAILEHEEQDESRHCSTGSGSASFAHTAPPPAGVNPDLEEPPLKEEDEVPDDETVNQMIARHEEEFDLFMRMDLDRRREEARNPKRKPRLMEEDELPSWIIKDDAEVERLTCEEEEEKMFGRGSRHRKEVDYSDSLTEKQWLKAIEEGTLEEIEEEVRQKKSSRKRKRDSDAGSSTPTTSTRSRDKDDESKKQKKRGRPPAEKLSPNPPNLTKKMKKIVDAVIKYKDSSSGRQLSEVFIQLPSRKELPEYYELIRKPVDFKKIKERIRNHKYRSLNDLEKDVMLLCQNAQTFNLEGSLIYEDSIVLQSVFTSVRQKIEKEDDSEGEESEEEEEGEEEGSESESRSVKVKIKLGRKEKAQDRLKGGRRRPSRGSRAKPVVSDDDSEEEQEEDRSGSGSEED

With `COC[C@H](NC(=O)c1ccn(S(C)(=O)=O)c1)C(=O)Nc1nc(-c2cncc(N3C[C@@H](C)O[C@@H](C)C3)n2)cs1` [Compound 707], the IC50 at BRG-1 and on BRM was above 0.01 µM in each case.

For `COC[C@H](NC(=O)c1ccn(S(C)(=O)=O)c1)C(=O)Nc1nc(-c2cc(F)c3c(c2)CCO3)cs1` [Compound 708], the IC50 at BRG-1 and at BRM was below 0.01 µM each time.

Turning to `CC(C)(C)n1ccc(C(=O)NCC(=O)Nc2nc(-c3cccc(N4CCCC(n5cncn5)C4)n3)cs2)c1` (stereo not shown) [Compound 709], the IC50 at BRG-1 and at BRM was above 0.01 µM in each case.

For the molecule `COC[C@H](NC(=O)c1ccn(S(C)(=O)=O)c1)C(=O)Nc1nc(-c2cccc(OC)c2F)cs1` [Compound 710], the IC50 on BRG-1 and at BRM was above 0.01 µM in each case.

Take `COc1cccc(-c2csc(NC(=O)CNC(=O)c3ccn(S(C)(=O)=O)c3)n2)c1F` [Compound 711]: the IC50 on BRG-1 and on BRM was above 0.01 µM throughout.

Turning to `COC[C@H](NC(=O)c1ccn(S(C)(=O)=O)c1)C(=O)Nc1nc(-c2cccc(C#N)c2)cs1` [Compound 712], the IC50 at BRG-1 and at BRM was above 0.01 µM in each case.

As for `COC[C@H](NC(=O)c1ccn(S(C)(=O)=O)c1)C(=O)Nc1nc(-c2cc(F)c3c(c2)N(C)CC3)cs1` [Compound 713], the IC50 at BRG-1 and at BRM was below 0.01 µM throughout.

Turning to `COC[C@H](NC(=O)c1ccn(S(C)(=O)=O)c1)C(=O)Nc1nc(-c2cc(F)cc(C#N)c2)cs1` [Compound 714], the IC50 on BRG-1 and at BRM was above 0.01 µM throughout.

With `CS(=O)(=O)n1ccc(C(=O)NCC(=O)Nc2nc(-c3cc(F)cc(C#N)c3)cs2)c1` [Compound 715], the IC50 at BRG-1 and on BRM was above 0.01 µM in each case.

With `COC[C@H](NC(=O)c1ccn(S(C)(=O)=O)c1)C(=O)Nc1nc(-c2ccc(F)c(OC)c2)cs1` [Compound 716], the IC50 on BRG-1 and at BRM was above 0.01 µM each time.

For the molecule `CS(=O)(=O)n1ccc(C(=O)NCC(=O)Nc2nc(-c3cccc([C@H]4[C@@H]5COC[C@@H]54)c3)cs2)c1` [Compound 717], the IC50 at BRG-1 and on BRM was above 0.01 µM throughout.

Consider `COc1cc(-c2csc(NC(=O)CNC(=O)c3ccn(S(C)(=O)=O)c3)n2)ccc1F` [Compound 718], for which the IC50 at BRG-1 and on BRM was above 0.01 µM throughout.

Regarding `CS(=O)(=O)n1ccc(C(=O)NCC(=O)Nc2nc(-c3cc(F)c4c(c3)C(F)(F)CC4)cs2)c1` [Compound 719], the IC50 at BRG-1 and on BRM was below 0.01 µM throughout.

On to `CS(=O)(=O)n1ccc(C(=O)NCC(=O)Nc2nc(-c3ccc4c(c3)C(F)(F)CC4)cs2)c1` [Compound 720], for which the IC50 on BRG-1 and on BRM was above 0.01 µM in each case.

As to `COC[C@H](NC(=O)c1ccn(S(C)(=O)=O)c1)C(=O)Nc1nc(-c2cc(Cl)cc(C#N)c2)cs1` [Compound 721], the IC50 on BRG-1 and on BRM was above 0.01 µM throughout.

In the case of `CS(=O)(=O)n1ccc(C(=O)NCC(=O)Nc2nc(-c3cc(Cl)cc(C#N)c3)cs2)c1` [Compound 722], the IC50 on BRG-1 and at BRM was above 0.01 µM each time.

On to `COC[C@H](NC(=O)c1ccn(S(C)(=O)=O)c1)C(=O)Nc1nc(-c2cc(F)cc(OC)c2)cs1` [Compound 726], for which the IC50 at BRG-1 and on BRM was below 0.01 µM each time.

As to `CC(C)(C)n1ccc(C(=O)NCC(=O)Nc2nc(-c3cccc(N4CC[C@@H]5COC[C@H]5C4)n3)cs2)c1` [Compound 727], the IC50 at BRG-1 was above 0.01 µM; at BRM, below 0.01 µM.

Regarding `COC[C@H](NC(=O)c1ccn(S(C)(=O)=O)c1)C(=O)Nc1nc(-c2ccc3c(c2)OC(F)(F)O3)cs1` [Compound 728], the IC50 on BRG-1 and on BRM was above 0.01 µM throughout.

On to `COC[C@H](NC(=O)c1ccn(C2(C#N)CCC2)c1)C(=O)Nc1nc(-c2cccc(N3C[C@@H](C)O[C@@H](C)C3)n2)cs1` [Compound 730], for which the IC50 on BRG-1 and at BRM was below 0.01 µM each time.

For `C[C@@H]1CN(c2cccc(-c3csc(NC(=O)CNC(=O)c4ccn(C5(C#N)CCC5)c4)n3)n2)C[C@H](C)O1` [Compound 731], the IC50 at BRG-1 and at BRM was below 0.01 µM in each case.

Take `COC[C@H](NC(=O)c1ccn(S(C)(=O)=O)c1)C(=O)Nc1nc(-c2ccc3c(c2)C(F)(F)CC3)cs1` [Compound 732]: the IC50 on BRG-1 and at BRM was above 0.01 µM in each case.

Take `COC[C@H](NC(=O)c1ccn(S(C)(=O)=O)c1)C(=O)Nc1nc(-c2cc(F)c3c(c2)C(F)(F)CC3)cs1` [Compound 733]: the IC50 on BRG-1 and at BRM was below 0.01 µM throughout.

Turning to `COC[C@H](NC(=O)c1ccn(S(C)(=O)=O)c1)C(=O)Nc1nc(-c2cc(C)cc(N3C[C@@H](C)O[C@@H](C)C3)n2)cs1` [Compound 734], the IC50 on BRG-1 and on BRM was below 0.01 µM in each case.

Consider `COC[C@H](NC(=O)c1ccn(S(C)(=O)=O)c1)C(=O)Nc1nc(-c2ccc3c(c2)CCN3C)cs1` [Compound 735], for which the IC50 on BRG-1 and on BRM was above 0.01 µM throughout.

For the molecule `C[C@@H]1CN(c2cccc(-c3csc(NC(=O)CNC(=O)c4ccn(C5(CF)COC5)c4)n3)n2)C[C@H](C)O1` [Compound 736], the IC50 on BRG-1 and on BRM was below 0.01 µM throughout.

In the case of `C[C@@H]1CN(c2cccc(-c3csc(NC(=O)CNC(=O)c4ccn(C5(C(F)F)CC5)c4)n3)n2)C[C@H](C)O1` [Compound 737], the IC50 on BRG-1 and at BRM was below 0.01 µM in each case.

As for `COC[C@H](NC(=O)c1ccn(S(C)(=O)=O)c1)C(=O)Nc1nc(-c2cc(F)cc(-c3cnn(C)n3)c2)cs1` [Compound 738], the IC50 on BRG-1 and on BRM was below 0.01 µM each time.

Turning to `COC[C@H](NC(=O)c1ccn(C(C)(C)C#N)c1)C(=O)Nc1nc(-c2cc(F)cc(-c3cnn(C)n3)c2)cs1` [Compound 739], the IC50 on BRG-1 and at BRM was below 0.01 µM in each case.

With `COC[C@H](NC(=O)c1ccn(C(C)(C)C#N)c1)C(=O)Nc1nc(-c2cc(C)cc(N3C[C@@H](C)O[C@@H](C)C3)n2)cs1` [Compound 740], the IC50 at BRG-1 and on BRM was below 0.01 µM in each case.

On to `CS(=O)(=O)n1ccc(C(=O)NCC(=O)Nc2nc(-c3cccc(C45CCOCC4C5)c3)cs2)c1` (stereo not shown) [Compound 743], for which the IC50 at BRG-1 and on BRM was above 0.01 µM in each case.

Turning to `CC(C)(C)n1ccc(C(=O)NCC(=O)Nc2nc(-c3cccc(C45CCOCC4C5)c3)cs2)c1` (stereo not shown) [Compound 744], the IC50 on BRG-1 and on BRM was above 0.01 µM throughout.

`CS(=O)(=O)n1ccc(C(=O)NCC(=O)Nc2nc(-c3cccc(N4CC[C@H]5COC[C@@H]5C4)n3)cs2)c1` [Compound 745]: the IC50 on BRG-1 and at BRM was below 0.01 µM throughout.

`CS(=O)(=O)n1ccc(C(=O)NCC(=O)Nc2nc(-c3cccc(N4CC[C@@H]5COC[C@H]5C4)n3)cs2)c1` [Compound 746]: the IC50 on BRG-1 and on BRM was below 0.01 µM in each case.

For the molecule `C[C@@H]1CN(c2cccc(-c3csc(NC(=O)CNC(=O)c4ccn(C(C)(C)C(F)F)c4)n3)n2)C[C@H](C)O1` [Compound 748], the IC50 on BRG-1 and at BRM was below 0.01 µM in each case.

As for `CC(F)C(C)(F)n1ccc(C(=O)NCC(=O)Nc2nc(-c3cccc(N4C[C@@H](C)O[C@@H](C)C4)n3)cs2)c1` (stereo partly shown) [Compound 749], the IC50 on BRG-1 and at BRM was above 0.1 µM in each case.

With `CS(=O)(=O)n1ccc(C(=O)NCC(=O)Nc2nc(-c3cccc(C45CCOCC4C5)n3)cs2)c1` (stereo not shown) [Compound 750, 1-methylsulfonyl-N-[2-[[4-[6-(3-oxabicyclo[4.1.0]heptan-6-yl)-2-pyridyl]thiazol-2-yl]amino]-2-oxo-ethyl]pyrrole-3-carboxamide], the IC50 at BRG-1 and at BRM was above 0.01 µM throughout.

As for `CC(C)(C)n1ccc(C(=O)NCC(=O)Nc2nc(-c3cccc(C45CCOCC4C5)n3)cs2)c1` (stereo not shown) [Compound 751], the IC50 on BRG-1 and on BRM was above 0.01 µM throughout.

On to `COC[C@H](NC(=O)c1ccn(S(C)(=O)=O)c1)C(=O)Nc1nc(-c2cccc([C@]34CCOC[C@H]3C4)n2)cs1` [Compound 755], for which the IC50 on BRG-1 and on BRM was above 0.01 µM each time.

Regarding `COC[C@H](NC(=O)c1ccn(S(C)(=O)=O)c1)C(=O)Nc1nc(-c2cccc([C@@]34CCOC[C@@H]3C4)n2)cs1` [Compound 756], the IC50 is above 0.1 µM on BRG-1 and above 0.01 µM on BRM.

For `CN(C)[C@H]1CCN(c2cccc(-c3csc(NC(=O)CNC(=O)c4ccn(S(C)(=O)=O)c4)n3)n2)CC1(F)F` [Compound 757], the IC50 at BRG-1 and on BRM was above 0.1 µM throughout.

Turning to `COC[C@H](NC(=O)c1ccn(S(C)(=O)=O)c1)C(=O)Nc1nc(-c2cc(F)c3c(c2)CCN3C)cs1` [Compound 758], the IC50 at BRG-1 and on BRM was below 0.01 µM throughout.

Regarding `COC[C@@H](NC(=O)c1ccn(S(C)(=O)=O)c1)C(=O)Nc1nc(-c2cc(F)c3c(c2)CCN3C)cs1` [Compound 759], the IC50 on BRG-1 and on BRM was above 0.01 µM throughout.

On to `CN[C@H]1CCN(c2cccc(-c3csc(NC(=O)CNC(=O)c4ccn(S(C)(=O)=O)c4)n3)n2)CC1(F)F` [Compound 760], for which the IC50 on BRG-1 and at BRM was above 0.1 µM each time.

`CN(C)[C@@H]1CCN(c2cccc(-c3csc(NC(=O)CNC(=O)c4ccn(S(C)(=O)=O)c4)n3)n2)CC1(F)F` [Compound 762]: the IC50 on BRG-1 and at BRM was above 0.01 µM in each case.

For `CN[C@@H]1CCN(c2cccc(-c3csc(NC(=O)CNC(=O)c4ccn(S(C)(=O)=O)c4)n3)n2)CC1(F)F` [Compound 763, N-[2-[[4-[6-[(4R)-3,3-difluoro-4-(methylamino)-1-piperidyl]-2-pyridyl]thiazol-2-yl]amino]-2-oxo-ethyl]-1-methylsulfonyl-pyrrole-3-carboxamide], the IC50 on BRG-1 and at BRM was below 0.01 µM each time.

`CS(=O)(=O)n1ccc(C(=O)NCC(=O)Nc2nc(-c3cccc(N4CC[C@H]5OCC[C@@H]5C4)n3)cs2)c1` [Compound 764]: the IC50 at BRG-1 and on BRM was below 0.01 µM each time.
